Experiment [1] concerns Panc-1 cells. In words: Cell migration assay, Panc-1. It counts as cell-based. To be noted: for migration index: Panc-1 with KiSS-1 short derivatives, FIG. 7B. On the procedure: (§1) A polyvinylpyrrolidone-free polycarbonate framed filter (8 μm pores) was set in a microchemotasis chamber (Corning Coster Corp., Cambridge, Mass.). Cells (2×10^6 cells in 200 μl RPMI1640 for AsPC-1 and in 200 μl DMEM for Panc-1) and peptide were added to the upper chamber and incubated at 37° C. for 12 hours to allow migration to the lower chamber, which contained 10% FBS/RPMI1640 for AsPC-1 or 5% FBS/DMEM for Panc-1 as a chemoattractant. After removing nonmigrating cells with a cotton swab from the upper surface of the membrane, cells on the lower surface were fixed, stained with Diff-Quick (International Reagent, Kobe, Japan). For quantification, cells were counted under a microscope in five predetermined fields at X200.

Experiment [2] concerns Panc-1 cells. In words: Cell proliferation assay, Panc-1. It counts as cell-based. To be noted: for proliferation activity (cell growth): Panc-1 with KiSS-1 short derivatives, FIG. 7A. As to the method:
(§2) Pancreatic cancer cell lines AsPC-1, BxPC-3, Capan-2, CFPAC-1, Panc-1 and Suit-2 were purchased from the American Type Culture Collection. Cells were cultured as monolayers in the appropriate medium supplemented with 10% fetal bovine serum, 100 units/ml penicillin, and 100 μg/ml streptomycin at 37° C., in a humid atmosphere of 5% CO2/95% air. As for AsPC-1 and Panc-1, upon reaching 80% confluence, the medium was removed, the cells were washed in phosphate-buffered saline (PBS) and treated with increasing doses of metastin (Takeda Chemical Industries, Osaka, Japan) with 10% fetal bovine serum and protein was isolated 15 minutes later as described below.
(§3) For assaying proliferation, AsPC-1 and Panc-1 cells (1×10^4cells/3 cm diameter dish) were seeded in 10% FBS medium and incubated with increasing doses of metastin for 48 and 96 hours. Cells were trypsinized and cell numbers were counted using hematocytometer.

Experiment [3] relates to ERK1/2, p38 and JNK1/2 in Panc-1 cells. Description: MAPK activation by Western blot, Panc-1. It counts as cell-based. To be noted: 15 minutes, immunoblot, FIG. 5, FIG. 7C. As to the method:
as §2
Cells were collected into microtubes with a cell scraper and lysed for 60 min in phosphorylation-inhibitory RIPA buffer containing 50 mM HEPES (pH 7.0), 250 mM NaCl, 0.1% Nonidet P-40, 1 mM phenylmethylsulfonyl fluoride (PMSF) and 20 μg /ml gabexate mesilate, then the lysate was sonicated for 10 sec. Total extracts were cleaned by centrifugation at 12,000 rpm for 10 min at 4° C., the supernatants were collected. Protein concentrations were measured using a protein assay kit (Tonein-TP, Otsuka Pharmaceutical, Tokyo, Japan). The lysates were resuspended in one volume of the gel loading buffer which contained 50 mM Tris-HCl (pH 6.7), 4% SDS, 0.02% bromophenol blue, 20% glycerol and 4% 2-mercaptoethanol, and then boiled at 95° C. for 90 sec. The extracted protein was subjected to Western blotting, as previously described (Wada, M. et al., Pancreas. 15: 176-82., 1997). In brief, 30 μg aliquots of protein was size-fractionated to a single dimension by SDS-PAGE (12% gels) and transblotted to a 0.45 μm polyvinylidene difluoride membrane (Bio-Rad, Richmond, Calif.) in a semidry electroblot apparatus (Bio-Rad, Richmond, Calif.). The blots were, then washed three times with TBST buffer and incubated for two hours at RT in the first antibody solution containing anti-phosphoERK antibody (#pTEpY, Promega, Madison, Wis.), anti-phosphop38 MAPK (#pTGpY, Promega, Madison, Wis.) or anti-phosphoJNK(#pTPpY, Promega, Madison, Wis.), 0.2% I-block (Promega, Madison, Wis.). After three washings in TBST buffer, the blots were incubated for one hour at RT with horseradish peroxidase conjugated anti-rabbit IgG at a 1:2000 dilution with TBST buffer. After three washings in TBST buffer, membranes were treated with enhanced chemiluminescence reagents (Amersham Life Sciences, Amersham, UK) according to the manufacturer's protocol. Membranes were exposed to X-ray film for 5-60 seconds. Protein expression was measured by ATTO densito-analyzer system AE-6920M (ATTO Corporation, Tokyo Japan) and the quantity was expressed numerically. The quantity of the target protein was divided by that of beta actin and relative intensities were obtained.
To evaluate the signaling pathways activated by endogenous metastin receptors in pancreatic cancer, activation of MAPK was examined by treatment with metastin. Cells in exponential stage were incubated in serum containing medium and then transferred to the 1% BSA medium with metastin, as in the case of migration or invasion assay. After incubation with increasing dose of metastin (0 μM, 0.1 μM, 1 μM, 10 μM) for 15 minutes, activation of ERK1/2, p38 and JNK1/2 were measured by immunoblot (FIG. 5A).

Experiment [4] deals with ERK1/2, p38 and JNK1/2 in AsPC-1 cells. In words: MAPK activation by Western blot, AsPC-1. It counts as cell-based. To be noted: 0-10 μM for 15 minutes, immunoblot. On the procedure: as §2
Cells were collected into microtubes with a cell scraper and lysed for 60 min in phosphorylation-inhibitory RIPA buffer containing 50 mM HEPES (pH 7.0), 250 mM NaCl, 0.1% Nonidet P-40, 1 mM phenylmethylsulfonyl fluoride (PMSF) and 20 μg /ml gabexate mesilate, then the lysate was sonicated for 10 sec. […] Protein concentrations were measured using a protein assay kit (Tonein-TP, Otsuka Pharmaceutical, Tokyo, Japan). […] Protein expression was measured by ATTO densito-analyzer system AE-6920M (ATTO Corporation, Tokyo Japan) and the quantity was expressed numerically. The quantity of the target protein was divided by that of beta actin and relative intensities were obtained. […]

The subject of experiment [5] is Panc-1 cells. Description: Matrigel invasion assay, Panc-1. It counts as cell-based. To be noted: 10 μM metastin, 12 hours, FIG. 4B. On the procedure: (§4) Cells and peptide (2×10^6 cells in 200 μl RPMI1640 for AsPC-1 and in 200 μl DMEM for Panc-1) were added to a Matrigel-coated Transwell(8 μm pores,. Becton Dickinson Labware, Bedford, Mass.) and incubated at 37° C. for 12 hours versus a lower chamber containing 10% FBS/RPMI1640 for AsPC-1 or 5% FBS/DMEM for Panc-1. After removing the Matrigel and cells from the upper surface of the membrane, cells on the lower surface were fixed, stained with Diff-Quick and quantified the number as well. Invasion index was defined as the number of invasion cells per that of migrating cells.

The subject of experiment [6] is AsPC-1 cells. Description: Matrigel invasion assay, AsPC-1. It counts as cell-based. To be noted: 10 μM metastin, 12 hours, FIG. 4B. As to the method:
as §4

Experiment [7] concerns hOT7T175 transfected Chinese hamster ovary (CHO) cells. To be noted: hOT7T175 transfected CHO cells in vitro; Hori et al., Kotani et al.; cited from earlier work.
For experiment [8], the system named is AsPC-1 cells. Description: Cell migration assay, AsPC-1. It counts as cell-based. To be noted: metastin 0 μM, 100 μM, 1 μM, 10 μM for 12 hours, FIG. 4A. On the procedure: as §1
In experiment [9] the test system is AsPC-1 cells. Description: Cell proliferation assay, AsPC-1. The settings on record: metastin 0, 100 μM, 1 μM and 10 μM for 48 hours and 96 hours, FIG. 3. It counts as cell-based. As to the method:
as §2, §3

Experiment [10] concerns hOT7T175 transfected B16-BL6 melanomas. To be noted: hOT7T175 transfected B16-BL6 melanomas in vivo; Ohtaki et al.; cited from earlier work.

Entries after “also recorded” stand apart in the source; their conditions may differ. The star is where a group is joined. X1 = 4‑(N,N-Bis(2-pyridylmethyl)aminomethyl)benzoyl, O=C(c1ccc(CN(Cc2ccccn2)Cc2ccccn2)cc1)*; 4‑(guanidinomethyl)benzoyl = N=C(N)NCc1ccc(C(=O)*)cc1

On to “4-(guanidinomethyl) benzoyl-Phe-Gly-Leu-Arg-Trp-NH2 ({4‑(guanidinomethyl)benzoyl}-FGLRW-NH2) [FM053a]”, for which the migration index result with Panc-1 cells [1] is recorded as “reduced the migration index; also recorded: less suppressive than FM052a”. Also, the “proliferation activity (cell growth)” value in the experiment on Panc-1 cells [2] is reported as “cell growth was not affected”. Further, in [3], the “activation of ERK1 (pERK1)” value is recorded as “less activation of pERK1 than FM052a”, the “activation of JNK1/2 (pJNKs)” value is on record as “not augmented” and the “activation of p38 (pp38)” value was “slightly activated”.

Consider “metastin: 54 amino acid peptide with C-terminal amidation processed from KiSS-1; ligand of receptor hOT7T175 (AXOR12)”, for which the “activation of ERK1 (pERK1)” value in experiment [4] and in [3] was “pERK1 was augmented” throughout. The “activation of JNK1/2 (pJNKs)” value in experiment [4] and in experiment [3] was “no reduction or increase of pJNKs” throughout. Also, the “invasion activity (invasion index)” value in the experiment with Panc-1 cells [5] and in the experiment with AsPC-1 cells [6] was “Invasion activity was not influenced” throughout. For the same substance, in experiment [7], the chemotaxis and invasion result is “inhibit chemotaxis and invasion”. In addition, the “reduction of migratory activity” value with Panc-1 cells [1] (Panc-1, metastin 0 μM, 100 μM, 1 μM, 10 μM for 12 hours, p<0.01, FIG. 4A) is given as “up to 40%”. In the experiment with AsPC-1 cells [8], the migratory activity result is “little influenced”. Moreover, the cell growth entry is “Neither AsPC-1 nor Panc-1 showed growth retardation” in the experiment on Panc-1 cells [2] (Panc-1, metastin 0, 100 μM, 1 μM and 10 μM for 48 hours and 96 hours, FIG. 3); “Neither AsPC-1 nor Panc-1 showed growth retardation” in the experiment with AsPC-1 cells [9]. Also, the “activation of p38 (pp38)” value in experiment [3] is reported as “Slight activation of p38”. Moreover, the pulmonary metastasis result in experiment [10] is on record as “attenuates pulmonary metastasis”.

Consider “4-[N,N-Bis(2 -pyridylmethyl)aminomethyl]benzoyl-Phe-Gly-Leu-Arg-Trp-NH2 (X1-FGLRW-NH2) [FM052a]”, for which the migration index entry in the experiment on Panc-1 cells [1] is “reduced the migration index; also recorded: nearly same activity with metastin”. The “proliferation activity (cell growth)” value in the experiment on Panc-1 cells [2] was “cell growth was not affected”. For the same substance, in [3], the “activation of ERK1 (pERK1)” value is recorded as “ERK1 activation was observed”, the “activation of JNK1/2 (pJNKs)” value is on record as “not augmented” and the “activation of p38 (pp38)” value is “slightly activated”.

These data come from patent US20040142875A1, “Metastin derivatives and their use” (priority 2003, published 2004).
